Values of other authors, collected in patent US20220354953A1, “PHOTODYNAMIC THERAPY COMPOSITIONS AND METHODS OF TREATMENT THEREIN” (Pinnacle Biologics, Inc., priority 2021, published 2022).

time stable when reconstituted with saline: 24 h
Substance: porfimer sodium
